{"source": "patent US20090203644A1", "about": "“Compositions for treating and/or preventing diseases characterized by the presence of metal ions” (GrenPharma LLC, priority 2004, published 2009)", "key": {"[1]": {"target": "A-beta peptide (Homo sapiens, UniProt P05067)", "sequence (P05067 672-713)": "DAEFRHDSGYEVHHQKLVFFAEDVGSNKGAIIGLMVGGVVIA", "type": "biochemical"}, "[2]": {"test_system": "A-beta antigen", "design": "species or system human"}, "[3]": {"test_system": "A-beta peptide", "design": "species or system human"}, "[4]": {"test_system": "Caco-2 cells"}, "[5]": {"test_system": "MDCK cells"}, "[6]": {"target": "A-beta peptide fragment (Homo sapiens, UniProt P05067)", "sequence (P05067 672-713)": "as above", "test": "CD helix-coil reversal and pretreatment experiments (Example 11)", "type": "biochemical"}, "[7]": {"target": "T1, A-beta1-42 peptide (Homo sapiens, UniProt P05067)", "T1 sequence (P05067 672-713)": "as above", "type": "biochemical"}, "[8]": {"details": "in vivo; cited from earlier work"}, "[9]": {"details": "20 mM in 25 mM or 100 mM MOPS, pH 7.1"}, "[10]": {"target": "peptide 1 (A-beta1-42 peptide) (Homo sapiens, UniProt P05067)", "sequence (P05067 672-713)": "as above", "type": "biochemical"}, "[11]": {"target": "T1, A-beta1-42 peptide", "type": "biochemical", "remark": "listed apart in the source"}, "[12]": {"test_system": "human subject", "details": "in vivo, po"}, "[13]": {"test": "Permeation of Transwell membranes alone (wells without cells)"}}, "note": "Entries after “also recorded” stand apart in the source; their conditions may differ. Counter-ions that a name gives are not always drawn. Like-named read-outs stand apart in the source and are kept apart here.", "data": [{"smiles": "C[Si](Cl)(Cl)CCC#N", "note": "[CEMS, 2-cyanoethylmethyldichlorosilane]", "values": [{"measurement": "protection from and/or reversal of metal-induced aggregation (DLS)", "setting": "[1]", "value": "protection against Al^3+-induced aggregation"}, {"measurement": "total extracted", "setting": "[2]", "value": 1.4, "unit": "fmol"}, {"measurement": "total extracted", "setting": "[3]", "value": 4.5, "unit": "fmol"}, {"measurement": "Permeation Coefficient (cm/sec) Mean ± SD, where applicable", "setting": "[4]; human, Caco-2", "value": "4.6e-06", "unit": "cm/s"}, {"measurement": "Total Permeation Coefficient (cm/sec) Mean ± SD, where applicable, Caco-2", "setting": "[4]; human, Caco-2", "value": "4.6e-06", "unit": "cm/s"}, {"measurement": "Total Permeation Coefficient (cm/sec) Mean ± SD, where applicable, MDCK", "setting": "[5]; dog", "value": "1.3e-06", "unit": "cm/s"}, {"measurement": "protection against loss of helicity upon addition of Al(ClO4)3", "setting": "[6]", "value": "protection against loss of helicity"}, {"measurement": "recovery of helical structure (CD)", "setting": "[6]", "value": "recovery of helical structure"}, {"measurement": "recovery of helicity (CD)", "setting": "[6]", "value": "recovery of helicity"}, {"measurement": "recovery of helicity in Al-denatured peptide / reversal of aluminum-induced denaturation (CD)", "setting": "[6]", "value": "appeared to reverse aluminum-induced denaturation; also recorded: recovery of helicity"}, {"measurement": "amount of Al added until which helicity was preserved", "setting": "[7]", "value": "about 1 equivalent"}, {"measurement": "protection of helical structure of A-beta1-42 against amyloid formation by aluminum (III)", "setting": "[7]", "value": "protection of the helical structure"}]}, {"smiles": "O=C(O)CN(CCN(CC(=O)O)CC(=O)O)CC(=O)O", "note": "[EDTA, ethylenediaminetetraacetic acid]", "values": [{"measurement": "time typical doses last in the body", "setting": "[8]", "value": "about 1 hour"}]}, {"smiles": "C[Si](Cl)(Cl)CC[Si](C)(Cl)Cl", "note": "[compound 1042, 1,2-(methyldichlorosilyl)ethane]", "values": [{"measurement": "share of total antigen released to the extract", "setting": "[2]", "value": "approximately 12%"}, {"measurement": "total extracted", "setting": "[2]", "value": 14.0, "unit": "fmol"}, {"measurement": "amyloid extracted compared with MOPS / buffer controls", "setting": "[3]", "value": "more amyloid"}, {"measurement": "share of total antigen released to the extract", "setting": "[3]", "value": "approximately 6%"}, {"measurement": "total extracted", "setting": "[3]", "value": 17.2, "unit": "fmol"}, {"measurement": "Cell Permeation Coefficient (cm/sec) Caco-2", "setting": "[4]; Caco-2", "value": "6.7e-05", "unit": "cm/s"}, {"measurement": "Permeation Coefficient (cm/sec) Mean ± SD, where applicable", "setting": "[4]; Caco-2", "value": "2.5e-05", "unit": "cm/s"}, {"measurement": "Total Permeation Coefficient (cm/sec) Mean ± SD, where applicable, Caco-2", "setting": "[4]; Caco-2", "value": "1.9 ± 1.1 × 10^−5 cm/sec"}, {"measurement": "cell permeation coefficient compared with mannitol, Caco-2", "setting": "[4]; Caco-2", "value": "at least ten times greater"}, {"measurement": "crossing of the epithelial barrier in the Caco-2 model", "setting": "[4]; Caco-2", "value": "cross the epithelial barrier relatively efficiently"}, {"measurement": "permeation across Caco-2 cells compared with mannitol", "setting": "[4]; Caco-2", "value": "at least ten times greater"}, {"measurement": "Cell Permeation Coefficient (cm/sec) MDCK", "setting": "[5]", "value": "5.6e-05", "unit": "cm/s"}, {"measurement": "Total Permeation Coefficient (cm/sec) Mean ± SD, where applicable, MDCK", "setting": "[5]", "value": "1.8 ± 1.2 × 10^−5 cm/sec"}, {"measurement": "cell permeation coefficient compared with mannitol, MDCK", "setting": "[5]", "value": "at least ten times greater"}, {"measurement": "crossing of the epithelial barrier in the MDCK model", "setting": "[5]", "value": "cross the epithelial barrier relatively efficiently"}, {"measurement": "permeation across MDCK cells compared with mannitol", "setting": "[5]", "value": "at least ten times greater"}, {"measurement": "time for which solutions were free of precipitate or colloidal suspensions / stable after preparation", "setting": "[9]", "value": "at least 24 hours"}, {"measurement": "recovery of helicity in Al-denatured peptide / reversal of aluminum-induced denaturation (CD)", "setting": "[6]; TFE solution, Al(ClO4)3", "value": "recovery of helicity"}]}, {"smiles": "C[Si](O)(O)CCCC#N", "note": "[compound 3f, (dihydroxy)methyl(3-cyanopropyl)silane]", "values": [{"measurement": "recovery of the CD spectrum on titration of iron-complexed peptide 1", "setting": "[10]", "value": "dosage effect is evident, but non-linear"}, {"measurement": "stability, solubility and effectiveness in reversing and/or preventing the effect of metal ion on helix formation", "setting": "[10]", "value": "efficient combination of stability, solubility, and effectiveness"}, {"measurement": "titration point showing the greatest degree of recovery", "setting": "[10]", "value": 0.25, "unit": "eq."}]}, {"smiles": "Cl", "note": "[HCl, hydrochloric acid, reference compound]", "values": [{"measurement": "reversing the metal-induced helix-coil transition", "setting": "[10]; acid, product of hydrolysis of chlorosilanes", "value": "itself effective for reversing the helix-coil transition"}, {"measurement": "Total Extracted (fmol)", "setting": "[2]", "value": "no detectable antigen"}, {"measurement": "reversal of / protection from metal-induced loss of helix in TFE solutions (CD)", "setting": "[6]; polyvalent metal ions as perchlorate salts", "value": "can reverse the loss of helix"}]}, {"smiles": "[Fe+2]", "note": "[iron (II)]", "values": [{"measurement": "effect on the A-beta1-42 CD spectrum (disruption of the alpha helix)", "setting": "[11]", "value": "minor or no effects"}]}, {"smiles": "[Zn]", "note": "[Zinc]", "values": [{"measurement": "effect on the A-beta1-42 CD spectrum (disruption of the alpha helix)", "setting": "[11]", "value": "minor or no effects"}]}, {"smiles": "C[Si](C)(Cl)CC[Si](C)(C)Cl", "values": [{"measurement": "effect on development of neurofibrillary tangles and senile plaques", "setting": "[12]", "value": "interferes with further development of neurofibrillary tangles and senile plaques"}]}, {"smiles": "OC[C@@H](O)[C@@H](O)[C@H](O)[C@H](O)CO", "note": "[mannitol, reference compound]", "values": [{"measurement": "Cell Permeation Coefficient (cm/sec) Caco-2", "setting": "[4]; human, Caco-2, 60 min", "value": "2.6e-06", "unit": "cm/s"}, {"measurement": "Permeation Coefficient (cm/sec) Mean ± SD, where applicable", "setting": "[4]; human, Caco-2, 60 min, 20 mM", "value": "1.9 ± 1.9 × 10^−6 cm/sec"}, {"measurement": "Total Permeation Coefficient (cm/sec) Mean ± SD, where applicable, Caco-2", "setting": "[4]; human, Caco-2, 60 min, 20 mM", "value": "1.9 ± 1.9 × 10^−6 cm/sec"}, {"measurement": "Cell Permeation Coefficient (cm/sec) MDCK", "setting": "[5]; dog, 60 min", "value": "1.4e-06", "unit": "cm/s"}, {"measurement": "Total Permeation Coefficient (cm/sec) Mean ± SD, where applicable, MDCK", "setting": "[5]; dog, 60 min, 20 mM", "value": "1.3 ± 1.0 × 10^−6 cm/sec"}, {"measurement": "Transwell Permeation Coeff. Mean ± SD, where applicable", "setting": "[13]", "value": "3.6 ± 0.3 × 10^−5 cm/sec"}]}]}
